The text below walks through data of ChEMBL document CHEMBL1201862, “PubChem BioAssay data set” (2004).

Structures can show the parent of a compound that is named as a salt. Calls of active or inactive are those of the source.

Assay [1] can be described thus: Luminescence Cell-Based Dose Response HTS to Identify Activators of Luciferase Translation or Activity in H4 […] Cells. [Related pubchem assays: 1829 (Project Summary), 1814 (Primary HTS)]. The format is functional.
A further assay has as its target CAAX prenyl protease 2 (Saccharomyces cerevisiae S288c, UniProt Q03530). The format is biochemical.
The nature of assay [2]: cytotoxicity toward NIH3T3 fibroblasts, dose response, counter-screen, cell-based, ATP luminescence, mouse fibroblasts (AID 2010).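 Also: cells exposed to compound for about 90 hours before reading.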 The format is functional. On the technique in general: A counterscreen serves to expose hits that act by an unwanted route or on another target.
Assay [3] is described as follows: inhibitors of intracellular T. cruzi replication, confirmation, NIH3T3 host cells, beta-gal luminescence (AID 2044).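 Also: intracellular parasites grown in NIH/3T3 mouse fibroblasts as host cells; luminescent beta-galactosidase reporter signal from transgenic T. cruzi replicating inside host cells; inhibitors lower the luminescence signal.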 In kind it is functional, cell-based.
A further assay has as its system H4. In words: Luminescence Cell-Based Dose Response HTS to Identify Activators of 5'UTR Stem-Loop Driven Prion Protein mRNA Translation in H4 Neuroglioblastoma Cells. [Related pubchem assays: 1829 (Project Summary), 1814 (Primary HTS)]. In kind it is functional. The following applies: Homo sapiens.
The nature of assay [4]: Luminescence Cell-Based Dose Confirmation HTS to Identify Activators of 5'UTR Stem-Loop Driven Alpha-Synuclein mRNA Translation in H4 Neuroglioblastoma Cells. [Related pubchem assays: 1829 (Project Summary), 1814 (Primary HTS)]. In kind it is functional.
The next assay has as its system T-cell. Put plainly: inhibitors of CD8+ T cell–vesicle binding, dose response, mouse 2C CD8+ T cells, flow cytometry (AID 485284). In kind it is functional.
The next assay deals with T1, Coagulation factor XII (Homo sapiens, UniProt P00748).
T1 sequence (P00748 whole entry): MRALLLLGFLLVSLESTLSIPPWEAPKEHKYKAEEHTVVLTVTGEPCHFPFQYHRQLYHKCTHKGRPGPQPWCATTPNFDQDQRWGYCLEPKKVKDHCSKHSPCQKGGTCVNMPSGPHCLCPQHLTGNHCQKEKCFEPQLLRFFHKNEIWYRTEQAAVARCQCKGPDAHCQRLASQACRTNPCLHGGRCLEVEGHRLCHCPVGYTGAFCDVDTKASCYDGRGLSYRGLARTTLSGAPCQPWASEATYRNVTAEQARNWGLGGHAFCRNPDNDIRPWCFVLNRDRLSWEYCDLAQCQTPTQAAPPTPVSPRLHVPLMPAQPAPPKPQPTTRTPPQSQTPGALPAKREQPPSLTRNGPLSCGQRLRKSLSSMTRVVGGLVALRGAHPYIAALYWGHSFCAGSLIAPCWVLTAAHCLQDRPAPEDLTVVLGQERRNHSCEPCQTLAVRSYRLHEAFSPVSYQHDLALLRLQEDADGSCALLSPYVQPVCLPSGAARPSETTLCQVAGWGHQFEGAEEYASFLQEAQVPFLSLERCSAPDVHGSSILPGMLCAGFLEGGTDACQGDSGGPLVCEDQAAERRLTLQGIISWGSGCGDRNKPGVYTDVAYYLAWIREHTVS
Put plainly: Factor XIIa Dose Response Confirmation from Single Well HTS. [Related pubchem assays (depositor defined):AID701]. In kind it is functional.

The next assay has as its target Integrin alpha-4 (Homo sapiens, UniProt P13612). Put plainly: VLA-4 integrin allosteric ligands, SAR follow-up, cell-based, LIBS antibody binding, flow cytometry (AID 488791). The format is functional. Background: A flow cytometer gives signals particle by particle.
In assay [5] the target is T2, Dual specificity protein phosphatase 6 (Rattus norvegicus, UniProt Q64346).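 Also: confirmatory in vitro dose-response testing of MKP-3 inhibition; recombinant His-tagged MKP-3 made in E. coli BL21 with OMFP substrate.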
T2 sequence (Q64346 whole entry): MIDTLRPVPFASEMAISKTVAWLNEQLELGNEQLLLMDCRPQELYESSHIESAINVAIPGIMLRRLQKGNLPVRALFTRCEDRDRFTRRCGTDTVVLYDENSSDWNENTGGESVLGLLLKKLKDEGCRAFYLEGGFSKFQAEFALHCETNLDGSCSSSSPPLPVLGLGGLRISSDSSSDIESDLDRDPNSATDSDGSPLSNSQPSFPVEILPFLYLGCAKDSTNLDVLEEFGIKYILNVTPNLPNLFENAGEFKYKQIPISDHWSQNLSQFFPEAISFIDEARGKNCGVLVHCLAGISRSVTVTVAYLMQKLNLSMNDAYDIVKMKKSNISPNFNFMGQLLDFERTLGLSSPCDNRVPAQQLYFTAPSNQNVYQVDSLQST
In kind it is functional.

For assay [6], the target named is Dual specificity protein phosphatase 3 (Homo sapiens, UniProt P51452). In words: SAR VHR1 Fluorescent Assay for In Vitro dose response studies Set 2. [Related pubchem assays (depositor defined):AID1654, AID1661, AID1878]. In kind it is functional.
Assay [7] concerns the target T3, Kappa-type opioid receptor (Homo sapiens, UniProt P41145). In words: SAR analysis of small molecule antagonists of the kappa opioid receptor via a luminescent beta-arrestin assay - Set 3. [Related pubchem assays (depositor defined):AID1777, AID1778, AID1785, AID1786, AID1966, AID2133, AID2136, AID2285, AID2495]. The format is functional.
Another assay concerns the target Mu-type opioid receptor (Homo sapiens, UniProt P35372). In words: SAR Analysis of Antagonists of the MOR Receptor using an Image-Based Assay - Set 3. [Related pubchem assays (depositor defined):AID1777, AID1785, AID1786, AID1966, AID2133, AID2136, AID2284, AID2285, AID2420]. The format is functional.
In assay [8] the target is T3, Kappa-type opioid receptor. Put plainly: SAR analysis of Antagonists of the Kappa Opioid Receptor (KOR) using an Image-Based Assay - Set 3. [Related pubchem assays (depositor defined):AID1777, AID1785]. The format is functional.
For assay [9], the target named is Delta-type opioid receptor (Homo sapiens, UniProt P41143). Put plainly: SAR Analysis of Antagonists of the DOR Receptor using an Image-Based Assay - Set 3. [Related pubchem assays (depositor defined):AID1777, AID1785]. The format is functional.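 Also: U2OS cells expressing DOR1 and beta-arrestin GFP stimulated with 100 nM SNC80; imaging of GFP-tagged beta-arrestin moving into spots after receptor activation.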
In the next assay the target is Hexokinase (Trypanosoma brucei, UniProt Q38C41). Put plainly: Confirmation assay for inhibitors of Trypanosoma brucei hexokinase 1-Analogue-first series. [Related pubchem assays (depositor defined):AID1430, AID1632, AID2516, AID2560, AID2579, AID2600, AID449725, AID492951]. The format is functional.
A further assay addresses Beta-galactosidase (Escherichia coli, UniProt Q8VNN2). Put plainly: beta-galactosidase enzyme inhibitors and activators, dose response, artefact control for CCR6 antagonist project, biochemical, E. coli enzyme, set 3 (AID 504712). The format is functional.
Assay [10] has as its target Heat shock protein HSP 90-alpha (Homo sapiens, UniProt P07900). In kind it is functional, organism-based.
The target of assay [11] is T4, Ubiquitin-conjugating enzyme E2 N (Homo sapiens, UniProt P61088).
T4 sequence (P61088 whole entry): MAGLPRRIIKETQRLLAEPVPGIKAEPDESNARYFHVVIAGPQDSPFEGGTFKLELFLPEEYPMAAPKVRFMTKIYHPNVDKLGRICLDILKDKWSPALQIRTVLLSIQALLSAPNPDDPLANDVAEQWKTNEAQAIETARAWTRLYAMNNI
The format is functional.

In a further assay the target is Cysteine protease ATG4B (Homo sapiens, UniProt Q9Y4P1). In kind it is functional.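 Also: Fluorescence-based dose-response confirmation assay measuring inhibition of ATG4B activity.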
A further assay addresses Large T antigen (Simian virus 40, UniProt P03070). The format is functional, Betapolyomavirus macacae.
Assay [12] has as its target T4, Ubiquitin-conjugating enzyme E2 N. The format is functional. This is another data set of the same source.
The next assay has as its target Phospholipase A2 (Homo sapiens, UniProt P04054). In kind it is functional.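 Also: confirmatory dose-response counterscreen on phospholipase A2, testing hits that came from an ultra-high-throughput screen for ATG4B inhibitors.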
Assay [13] has as its target C-C chemokine receptor type 6 (Homo sapiens, UniProt P51684). Put plainly: CCR6 receptor antagonists, dose response, cell-based, luminescent beta-arrestin readout (AID 504728). In kind it is functional.
A further assay concerns the target T5, Hexokinase HKDC1 (Homo sapiens, UniProt Q2TB90).
T5 sequence (Q2TB90 whole entry): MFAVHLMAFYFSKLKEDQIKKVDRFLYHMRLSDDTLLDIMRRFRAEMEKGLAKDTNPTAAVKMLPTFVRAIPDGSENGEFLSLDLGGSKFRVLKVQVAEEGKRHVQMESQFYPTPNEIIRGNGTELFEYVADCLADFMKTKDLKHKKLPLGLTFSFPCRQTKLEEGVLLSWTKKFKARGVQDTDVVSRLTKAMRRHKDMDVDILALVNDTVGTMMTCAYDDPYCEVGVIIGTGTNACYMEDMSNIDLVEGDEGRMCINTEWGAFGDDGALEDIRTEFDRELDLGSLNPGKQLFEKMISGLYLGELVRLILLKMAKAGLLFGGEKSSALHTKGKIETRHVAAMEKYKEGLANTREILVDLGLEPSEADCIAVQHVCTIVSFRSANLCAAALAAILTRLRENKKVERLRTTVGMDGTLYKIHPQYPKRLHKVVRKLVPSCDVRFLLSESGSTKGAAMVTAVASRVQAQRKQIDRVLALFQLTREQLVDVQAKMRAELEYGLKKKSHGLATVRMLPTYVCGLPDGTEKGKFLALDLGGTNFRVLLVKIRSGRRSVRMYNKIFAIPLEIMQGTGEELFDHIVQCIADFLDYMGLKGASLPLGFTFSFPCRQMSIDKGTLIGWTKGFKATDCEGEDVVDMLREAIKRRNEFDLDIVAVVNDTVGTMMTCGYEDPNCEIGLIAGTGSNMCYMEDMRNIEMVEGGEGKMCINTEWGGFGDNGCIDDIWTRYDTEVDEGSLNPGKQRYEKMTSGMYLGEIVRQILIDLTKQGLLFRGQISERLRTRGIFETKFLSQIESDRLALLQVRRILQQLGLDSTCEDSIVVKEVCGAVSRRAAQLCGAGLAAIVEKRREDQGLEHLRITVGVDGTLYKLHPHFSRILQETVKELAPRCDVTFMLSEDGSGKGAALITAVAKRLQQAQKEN
In words: HKDC1 hexokinase inhibitors, dose response, biochemical, W721R variant (AID 504729). The format is functional.

Another assay deals with Bcl-2-related protein A1 (Mus musculus, UniProt Q07440). In kind it is functional.
Bcl-2-related protein A1, sequence (Q07440 whole entry): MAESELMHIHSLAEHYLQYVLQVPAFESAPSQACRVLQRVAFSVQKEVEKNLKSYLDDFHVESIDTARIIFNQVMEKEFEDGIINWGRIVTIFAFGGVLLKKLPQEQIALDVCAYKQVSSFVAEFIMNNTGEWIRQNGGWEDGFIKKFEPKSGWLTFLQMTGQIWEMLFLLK

T3 sequence (P41145 whole entry): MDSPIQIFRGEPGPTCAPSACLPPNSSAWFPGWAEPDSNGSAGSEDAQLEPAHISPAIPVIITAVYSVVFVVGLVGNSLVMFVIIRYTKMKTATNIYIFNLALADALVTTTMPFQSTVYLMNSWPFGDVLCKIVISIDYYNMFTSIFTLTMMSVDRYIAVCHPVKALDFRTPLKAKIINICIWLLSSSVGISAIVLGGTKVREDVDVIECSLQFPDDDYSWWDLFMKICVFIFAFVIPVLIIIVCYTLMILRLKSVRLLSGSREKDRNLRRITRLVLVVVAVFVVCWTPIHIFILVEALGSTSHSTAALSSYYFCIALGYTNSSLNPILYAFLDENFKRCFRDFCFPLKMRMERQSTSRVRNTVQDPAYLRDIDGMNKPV
Cysteine protease ATG4B, sequence (Q9Y4P1 whole entry): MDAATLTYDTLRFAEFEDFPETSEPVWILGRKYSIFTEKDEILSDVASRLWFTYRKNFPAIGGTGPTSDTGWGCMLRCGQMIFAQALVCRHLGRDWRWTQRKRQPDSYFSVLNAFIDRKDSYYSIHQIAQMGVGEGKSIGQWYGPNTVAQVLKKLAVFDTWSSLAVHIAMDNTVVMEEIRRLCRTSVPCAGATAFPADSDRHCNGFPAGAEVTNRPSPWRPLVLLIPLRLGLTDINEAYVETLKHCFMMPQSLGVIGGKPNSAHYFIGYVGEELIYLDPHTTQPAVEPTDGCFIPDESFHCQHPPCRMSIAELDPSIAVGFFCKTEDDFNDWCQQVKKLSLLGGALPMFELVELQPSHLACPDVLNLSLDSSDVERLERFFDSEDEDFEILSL
CAAX prenyl protease 2, sequence (Q03530 whole entry): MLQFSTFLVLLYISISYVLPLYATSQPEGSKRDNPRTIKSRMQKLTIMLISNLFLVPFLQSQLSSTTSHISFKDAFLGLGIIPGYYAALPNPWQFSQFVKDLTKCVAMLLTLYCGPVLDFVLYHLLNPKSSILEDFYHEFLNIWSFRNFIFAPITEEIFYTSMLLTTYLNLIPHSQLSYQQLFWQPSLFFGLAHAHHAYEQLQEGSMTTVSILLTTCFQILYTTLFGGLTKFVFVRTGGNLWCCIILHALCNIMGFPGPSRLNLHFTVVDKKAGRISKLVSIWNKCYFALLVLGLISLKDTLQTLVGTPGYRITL
Hexokinase, sequence (Q38C41 whole entry): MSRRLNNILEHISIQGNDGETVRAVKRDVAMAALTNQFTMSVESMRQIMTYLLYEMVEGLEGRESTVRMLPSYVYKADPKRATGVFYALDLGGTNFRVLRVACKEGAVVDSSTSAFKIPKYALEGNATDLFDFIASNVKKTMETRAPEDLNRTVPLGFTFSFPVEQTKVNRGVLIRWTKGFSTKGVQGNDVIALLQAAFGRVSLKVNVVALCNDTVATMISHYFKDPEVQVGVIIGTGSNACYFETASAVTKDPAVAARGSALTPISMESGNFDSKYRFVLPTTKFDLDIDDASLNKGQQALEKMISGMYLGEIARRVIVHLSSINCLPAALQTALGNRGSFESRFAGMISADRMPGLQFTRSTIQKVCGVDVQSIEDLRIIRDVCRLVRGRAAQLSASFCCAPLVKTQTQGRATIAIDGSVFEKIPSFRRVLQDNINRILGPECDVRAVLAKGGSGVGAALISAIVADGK
Beta-galactosidase, sequence (Q8VNN2 whole entry): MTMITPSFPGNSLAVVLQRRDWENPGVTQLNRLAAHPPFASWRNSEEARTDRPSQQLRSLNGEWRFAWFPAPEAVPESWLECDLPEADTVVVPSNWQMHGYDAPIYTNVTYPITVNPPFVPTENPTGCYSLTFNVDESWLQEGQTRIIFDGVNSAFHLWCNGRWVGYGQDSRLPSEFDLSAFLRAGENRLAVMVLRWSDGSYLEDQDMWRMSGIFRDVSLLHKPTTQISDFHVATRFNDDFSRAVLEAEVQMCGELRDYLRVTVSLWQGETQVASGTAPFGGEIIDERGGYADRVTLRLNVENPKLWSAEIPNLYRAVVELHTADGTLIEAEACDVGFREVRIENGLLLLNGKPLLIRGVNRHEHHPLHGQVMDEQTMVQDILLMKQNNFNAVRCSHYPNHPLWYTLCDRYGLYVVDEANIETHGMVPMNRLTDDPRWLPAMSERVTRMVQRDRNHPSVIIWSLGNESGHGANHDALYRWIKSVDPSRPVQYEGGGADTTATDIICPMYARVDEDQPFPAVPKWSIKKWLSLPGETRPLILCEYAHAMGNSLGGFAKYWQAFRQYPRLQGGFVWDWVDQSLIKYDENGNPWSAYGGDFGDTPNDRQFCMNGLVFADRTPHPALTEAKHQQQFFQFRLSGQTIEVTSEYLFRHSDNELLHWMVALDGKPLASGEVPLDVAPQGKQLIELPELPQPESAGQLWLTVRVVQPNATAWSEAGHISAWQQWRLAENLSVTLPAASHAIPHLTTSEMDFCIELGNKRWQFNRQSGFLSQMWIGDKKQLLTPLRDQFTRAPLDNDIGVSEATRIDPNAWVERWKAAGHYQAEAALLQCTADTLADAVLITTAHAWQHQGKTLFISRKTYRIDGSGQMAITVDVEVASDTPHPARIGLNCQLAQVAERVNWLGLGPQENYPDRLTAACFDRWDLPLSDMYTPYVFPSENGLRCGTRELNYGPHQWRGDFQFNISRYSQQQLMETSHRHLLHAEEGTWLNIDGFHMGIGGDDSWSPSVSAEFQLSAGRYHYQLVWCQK
Phospholipase A2, sequence (P04054 whole entry): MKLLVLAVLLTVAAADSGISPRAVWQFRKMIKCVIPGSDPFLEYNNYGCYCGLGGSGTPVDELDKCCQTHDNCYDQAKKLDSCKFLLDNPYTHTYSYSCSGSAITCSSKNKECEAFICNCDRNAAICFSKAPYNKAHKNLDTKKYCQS
Integrin alpha-4, sequence (P13612 whole entry): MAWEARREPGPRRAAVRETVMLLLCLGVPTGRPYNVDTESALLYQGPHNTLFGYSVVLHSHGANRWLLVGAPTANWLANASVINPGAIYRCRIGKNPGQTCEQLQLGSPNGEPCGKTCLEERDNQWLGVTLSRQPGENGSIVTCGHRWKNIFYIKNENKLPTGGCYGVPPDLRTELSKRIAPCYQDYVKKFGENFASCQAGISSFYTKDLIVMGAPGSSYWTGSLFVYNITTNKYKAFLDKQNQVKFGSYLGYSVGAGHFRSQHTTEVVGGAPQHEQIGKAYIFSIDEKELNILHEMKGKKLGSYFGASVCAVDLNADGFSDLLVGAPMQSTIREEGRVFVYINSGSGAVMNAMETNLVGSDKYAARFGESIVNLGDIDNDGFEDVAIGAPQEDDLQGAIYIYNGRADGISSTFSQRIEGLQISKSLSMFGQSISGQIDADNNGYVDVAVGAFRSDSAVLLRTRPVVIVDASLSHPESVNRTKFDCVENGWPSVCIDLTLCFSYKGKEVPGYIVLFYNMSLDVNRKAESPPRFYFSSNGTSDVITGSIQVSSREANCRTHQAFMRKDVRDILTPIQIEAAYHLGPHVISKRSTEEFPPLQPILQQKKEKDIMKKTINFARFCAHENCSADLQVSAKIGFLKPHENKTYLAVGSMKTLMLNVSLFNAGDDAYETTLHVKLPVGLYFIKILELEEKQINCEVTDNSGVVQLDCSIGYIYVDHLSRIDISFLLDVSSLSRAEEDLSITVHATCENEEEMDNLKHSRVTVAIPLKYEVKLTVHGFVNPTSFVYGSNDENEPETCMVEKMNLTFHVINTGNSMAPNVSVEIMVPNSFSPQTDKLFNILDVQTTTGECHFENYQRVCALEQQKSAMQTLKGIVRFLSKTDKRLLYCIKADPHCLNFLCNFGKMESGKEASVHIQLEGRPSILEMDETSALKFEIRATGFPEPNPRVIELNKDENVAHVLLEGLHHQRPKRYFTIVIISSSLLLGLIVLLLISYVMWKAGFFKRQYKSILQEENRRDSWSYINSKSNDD
Large T antigen, sequence (P03070 whole entry): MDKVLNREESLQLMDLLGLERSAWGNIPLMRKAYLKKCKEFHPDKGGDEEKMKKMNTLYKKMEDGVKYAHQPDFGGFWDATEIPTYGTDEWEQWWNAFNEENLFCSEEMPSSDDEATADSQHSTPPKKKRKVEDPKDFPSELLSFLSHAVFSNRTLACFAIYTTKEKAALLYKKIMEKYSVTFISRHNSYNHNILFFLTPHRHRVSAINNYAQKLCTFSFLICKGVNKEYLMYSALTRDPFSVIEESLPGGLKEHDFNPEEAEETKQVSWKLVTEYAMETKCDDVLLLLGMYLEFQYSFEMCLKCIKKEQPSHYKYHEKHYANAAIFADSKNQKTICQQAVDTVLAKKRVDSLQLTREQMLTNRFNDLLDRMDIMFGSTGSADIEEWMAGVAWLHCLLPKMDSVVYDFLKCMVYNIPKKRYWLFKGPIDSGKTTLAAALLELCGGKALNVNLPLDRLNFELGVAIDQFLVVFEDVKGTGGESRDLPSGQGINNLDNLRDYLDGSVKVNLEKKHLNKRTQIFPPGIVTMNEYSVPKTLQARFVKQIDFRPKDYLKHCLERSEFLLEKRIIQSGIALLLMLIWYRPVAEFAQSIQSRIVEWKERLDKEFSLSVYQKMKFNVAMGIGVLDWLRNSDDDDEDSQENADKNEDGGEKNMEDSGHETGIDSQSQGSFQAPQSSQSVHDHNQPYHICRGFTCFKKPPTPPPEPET
Dual specificity protein phosphatase 3, sequence (P51452 whole entry): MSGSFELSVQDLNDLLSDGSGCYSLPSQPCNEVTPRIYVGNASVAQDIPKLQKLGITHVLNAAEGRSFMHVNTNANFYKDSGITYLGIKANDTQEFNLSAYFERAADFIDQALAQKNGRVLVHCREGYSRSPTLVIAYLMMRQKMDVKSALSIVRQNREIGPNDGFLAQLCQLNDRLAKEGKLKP

`Cc1ccc2c(c1)sc[n+]2Cc1ccccc1`: the EC50 in assay [1] was 46.1 µM (active); in assay [2] it was > 60 µM (not active); in assay [3], 1.87 µM (active); in the assay on H4, 68.9 µM (inconclusive); in assay [4], 11.9 µM (active). Also, on CAAX prenyl protease 2, the AC50 is 18.6 µM (active).

For the compound `COc1ccc([C@H]2CC(=O)C=C(c3ccc(OC)nc3)C2)cc1`, the EC50 in the assay on T-cell is 3.19 µM (active).

On to `CCc1ccc(C(=O)COC(=O)c2cccs2)cc1`, for which the IC50 on Coagulation factor XII is > 50 µM (inactive).

Consider `O=C1NC(=O)C2(N1)c1ccccc1-c1ccccc12`, for which the EC50 on Integrin alpha-4 is 0.334 µM (active).

As to `Cc1ccc(C(=O)NC2CCSc3ccccc32)cc1S(N)(=O)=O` (stereo unspecified), the IC50 in [5] and in [6] was > 100 µM (inactive) throughout.

Turning to `CCN(CCNC(=O)c1ccc(CNS(=O)(=O)c2ccc(Br)cc2)cc1)Cc1ccccc1`, the IC50 in assay [7] was 19.4 µM (inactive); on Mu-type opioid receptor it was 8.46 µM (active); in [8], 4.82 µM (active); in assay [9], > 32 µM (inactive).

As to `O=C(CCn1sc2ccccc2c1=O)Nc1ccccc1`, the IC50 at Hexokinase was 19.8 µM (active).

With `CCCCC(CC)CNC(=N)NC(=N)NCCCCCCNC(=N)NC(=N)NCC(CC)CCCC` (stereo unspecified) [ALEXIDINE HYDROCHLORIDE], the IC50 on Beta-galactosidase is > 66.6 µM (inactive); in [11], 1.73 µM (active); at Cysteine protease ATG4B it was 3.89 µM (active); on Large T antigen it was 29.1 µM (active); in assay [12] it was 1.98 µM (active); on Phospholipase A2 it was 9.51 µM (active). The IC50 in assay [13] was 25.9 µM (inactive); on Hexokinase HKDC1, 14.2 µM (active); on Bcl-2-related protein A1 it was 5.95 µM (active). Besides, the AC50 in assay [10] was 4.05 µM (active).

In general, EC50 refers to the concentration giving half of the maximal effect. Broadly, the AC50 is the concentration giving half of the maximal activity seen. As usually defined, the IC50 is the concentration at which inhibition is half-maximal.
